Laboratory results as given in patent US8278295B2, “Amino-heterocyclic compounds” (Pfizer Inc., priority 2009, dated 2012).

Molecular target: human recombinant PDE9 enzyme (Homo sapiens, UniProt O76083)
Experiment: PDE9 IC50, 96-well assay (Phosphodiesterase SPA)
Assay type: biochemical
Description: PDE9 IC50, 96-well assay: The assay was performed using the Phosphodiesterase Scintillation Proximity (SPA) assay (GE Healthcare Life Sciences). […] The human recombinant PDE9 enzyme was generated in SF-9 cells, the cell pellets were sonicated in buffer (20 mM Tris, 2 mM benzamidine, 1 mM EDTA, 250 mM sucrose, 100 μM PMSF, pH 7.5 with HCl), centrifuged at 40,000×g for 20 min at 4° C. The supernatants were stored at −80° C. […] Test compounds were dissolved in DMSO, diluted in DI H2O and serially diluted in 20% DMSO/80% H2O, for a final concentration of 2% DMSO. For the assay the PDE9 was diluted with assay buffer such that 20% or less of the substrate was hydrolyzed to 5′GMP. Each assay well contained 10 μL of test compound or solvent, 40 μl of [^3H]cGMP and 50 μl of enzyme, background was determined by a high concentration of a PDE inhibitor. The assay was initiated with the addition of the enzyme and carried out at room temperature for 30 min. […] The plates were sealed, vortexed, allowed to set for >300 min, then counted in a Wallac TriLux MicroBeta LSC.

Chain of human recombinant PDE9 enzyme (O76083 whole entry): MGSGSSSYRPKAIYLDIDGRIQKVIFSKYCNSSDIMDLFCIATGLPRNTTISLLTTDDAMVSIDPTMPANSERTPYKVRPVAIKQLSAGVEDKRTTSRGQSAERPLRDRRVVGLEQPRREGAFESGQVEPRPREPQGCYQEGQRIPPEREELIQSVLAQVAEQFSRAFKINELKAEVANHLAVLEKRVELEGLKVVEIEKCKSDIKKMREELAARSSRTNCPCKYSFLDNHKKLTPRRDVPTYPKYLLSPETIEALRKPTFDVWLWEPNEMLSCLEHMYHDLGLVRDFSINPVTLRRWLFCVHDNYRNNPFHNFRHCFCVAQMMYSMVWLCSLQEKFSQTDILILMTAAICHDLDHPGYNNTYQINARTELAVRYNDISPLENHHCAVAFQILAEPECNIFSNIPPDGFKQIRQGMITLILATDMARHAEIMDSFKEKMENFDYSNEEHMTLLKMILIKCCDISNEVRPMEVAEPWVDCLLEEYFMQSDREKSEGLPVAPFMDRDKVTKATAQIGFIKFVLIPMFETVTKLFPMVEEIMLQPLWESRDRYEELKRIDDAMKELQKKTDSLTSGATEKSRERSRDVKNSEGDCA

## C[C@H](c1nc2c(cnn2C2CCCC2)c(=O)[nH]1)N1CC(Oc2ncccn2)C1 [Example 13, 1-Cyclopentyl-6-{(1R)-1-[3-(pyrimidin-2-yloxy)azetidin-1-yl]ethyl}-1,5-dihydro-4H-pyrazolo[3,4-d]pyrimidin-4-one]
  IC50: 9.49 nM
